From ChEMBL document CHEMBL2169745, “Photoinduced DNA cleavage by anthracene based hydroxamic acids” (Bioorg Med Chem Lett, 2012)
Values belong to the compound of their own block, whether it stands above or below them.

What was measured:
Format in all cases: nucleic-acid assay
[1] = system: Nucleic Acid; assay: Induction of DNA cleavage in Escherichia coli pBR322 DNA assessed as formation of relaxed circular DNA at 100 uM treated for 1 hr using ethidium bromide staining by agarose gel electrophoresis analysis in presence of UV light; design: scale not given: the % may be the effect or the level left
[2] = system: Nucleic Acid; assay: Induction of DNA cleavage in Escherichia coli pBR322 DNA assessed as formation of relaxed circular DNA at 50 uM treated for 1 hr using ethidium bromide staining by agarose gel electrophoresis analysis in presence of UV light; design: scale not given: the % may be the effect or the level left
[3] = system: Nucleic Acid; assay: Induction of DNA cleavage in Escherichia coli pBR322 DNA assessed as formation of relaxed circular DNA at 100 uM treated for 1 hr using ethidium bromide staining by agarose gel electrophoresis analysis in presence of UV light and 300 mM of NaN3; design: scale not given: the % may be the effect or the level left
[4] = system: Nucleic Acid; assay: Induction of DNA cleavage in Escherichia coli pBR322 DNA assessed as formation of relaxed circular DNA at 100 uM treated for 1 hr using ethidium bromide staining by agarose gel electrophoresis analysis in presence of UV light and 40 mM of NaN3; design: scale not given: the % may be the effect or the level left
[5] = system: Nucleic Acid; assay: Induction of DNA cleavage in Escherichia coli pBR322 DNA assessed as formation of relaxed circular DNA at 100 uM treated for 1 hr using ethidium bromide staining by agarose gel electrophoresis analysis in presence of UV light and 75 mM of NaN3; design: scale not given: the % may be the effect or the level left
[6] = system: Nucleic Acid; assay: Induction of DNA cleavage in Escherichia coli pBR322 DNA assessed as formation of relaxed circular DNA at 100 uM treated for 1 hr using ethidium bromide staining by agarose gel electrophoresis analysis in presence of UV light and DABCO; design: scale not given: the % may be the effect or the level left
[7] = system: Nucleic Acid; assay: Induction of DNA cleavage in Escherichia coli pBR322 DNA assessed as formation of relaxed circular DNA at 100 uM treated for 1 hr using ethidium bromide staining by agarose gel electrophoresis analysis in presence of UV light and D2O; design: scale not given: the % may be the effect or the level left
[8] = system: Nucleic Acid; assay: Induction of DNA cleavage in Escherichia coli pBR322 DNA assessed as formation of relaxed circular DNA treated for 1 hr using ethidium bromide staining by agarose gel electrophoresis analysis in presence of UV light
[9] = system: Nucleic Acid; assay: Induction of DNA cleavage in Escherichia coli pBR322 DNA assessed as formation of relaxed circular DNA at 100 uM treated for 1 hr using ethidium bromide staining by agarose gel electrophoresis analysis in presence of UV light and 20 mM of NaN3; design: scale not given: the % may be the effect or the level left
[10] = system: Nucleic Acid; assay: Induction of DNA cleavage in Escherichia coli pBR322 DNA assessed as formation of relaxed circular DNA at 25 uM treated for 1 hr using ethidium bromide staining by agarose gel electrophoresis analysis in presence of UV light; design: scale not given: the % may be the effect or the level left
[11] = system: Nucleic Acid; assay: Induction of DNA cleavage in Escherichia coli pBR322 DNA assessed as formation of relaxed circular DNA at 100 uM treated for 1 hr using ethidium bromide staining by agarose gel electrophoresis analysis in presence of UV light and ascorbic acid; design: scale not given: the % may be the effect or the level left
[12] = system: Nucleic Acid; assay: Induction of DNA cleavage in Escherichia coli pBR322 DNA assessed as formation of relaxed circular DNA at 100 uM treated for 1 hr using ethidium bromide staining by agarose gel electrophoresis analysis in presence of bubbling with Ar gas; design: scale not given: the % may be the effect or the level left
[13] = system: Nucleic Acid; assay: Induction of DNA cleavage in Escherichia coli pBR322 DNA assessed as formation of relaxed circular DNA at 100 uM treated for 1 hr using ethidium bromide staining by agarose gel electrophoresis analysis in presence of UV light and DMSO; design: scale not given: the % may be the effect or the level left
[14] = system: Nucleic Acid; assay: Induction of DNA cleavage in Escherichia coli pBR322 DNA assessed as formation of relaxed circular DNA at 10 uM treated for 1 hr using ethidium bromide staining by agarose gel electrophoresis analysis in presence of UV light; design: scale not given: the % may be the effect or the level left
[15] = system: Nucleic Acid; assay: Induction of DNA cleavage in Escherichia coli pBR322 DNA assessed as formation of relaxed circular DNA at 75 uM treated for 1 hr using ethidium bromide staining by agarose gel electrophoresis analysis in presence of UV light; design: scale not given: the % may be the effect or the level left
[16] = system: Nucleic Acid; assay: Induction of DNA cleavage in Escherichia coli pBR322 DNA assessed as formation of relaxed circular DNA at 40 uM treated for 1 hr using ethidium bromide staining by agarose gel electrophoresis analysis in presence of UV light; design: scale not given: the % may be the effect or the level left
[17] = system: Nucleic Acid; assay: Induction of DNA cleavage in Escherichia coli pBR322 DNA assessed as formation of relaxed circular DNA at 100 uM treated for 1 hr using ethidium bromide staining by agarose gel electrophoresis analysis in presence of UV light and 600 mM of NaN3; design: scale not given: the % may be the effect or the level left
[18] = system: Nucleic Acid; assay: Induction of DNA cleavage in Escherichia coli pBR322 DNA assessed as formation of relaxed circular DNA at 100 uM treated for 1 hr using ethidium bromide staining by agarose gel electrophoresis analysis in presence of UV light and 150 mM of NaN3; design: scale not given: the % may be the effect or the level left
[19] = system: Nucleic Acid; assay: Induction of DNA cleavage in Escherichia coli pBR322 DNA assessed as formation of relaxed circular DNA at 100 uM treated for 1 hr using ethidium bromide staining by agarose gel electrophoresis analysis in presence of bubbling with O2 gas; design: scale not given: the % may be the effect or the level left

- Activity [1]: 89%
Structure (SMILES): O=C(/C=C/c1c2ccccc2cc2ccccc12)NC(Cc1c[nH]c2ccccc12)C(=O)NO (stereo not drawn)

- Activity [1]: 60%
Structure (SMILES): O=C(O)C(Cc1ccccc1)NCc1c2ccccc2cc2ccccc12 (stereo not drawn)

- Activity [1]: 99%
Structure (SMILES): O=C(/C=C/c1c2ccccc2cc2ccccc12)NC(C(=O)NO)c1ccccc1 (stereo not drawn)

- Activity [1]: 35%
Structure (SMILES): O=C(/C=C/c1c2ccccc2cc2ccccc12)NC(Cc1ccccc1)C(=O)O (stereo not drawn)

- Activity [1]: 98%
Structure (SMILES): O=C(/C=C/c1c2ccccc2cc2ccccc12)NC(Cc1ccccc1)C(=O)NO (stereo not drawn)

More lines, now with the values behind:

Structure (SMILES): O=C(NO)C(NCc1c2ccccc2cc2ccccc12)c1ccccc1 (stereo not drawn)
- Activity [1]: 98%

Structure (SMILES): O=C(NO)C(Cc1c[nH]c2ccccc12)NCc1c2ccccc2cc2ccccc12 (stereo not drawn)
- Activity [1]: 91%

Structure (SMILES): O=C(NO)C(Cc1ccccc1)NCc1c2ccccc2cc2ccccc12 (stereo not drawn)
- Activity [1]: 97%
- Activity [2]: 25%
- Activity [3]: 62%
- Activity [4]: 86%
- Activity [5]: 77%
- Activity [6]: 74%
- Activity [7]: 100%
- Activity [8]: Dose-dependent effect
- Activity [9]: 97%
- Activity [10]: 4%
- Activity [11]: 37%
- Activity [12]: 75%
- Activity [13]: 54%
- Activity [14]: 2%
- Activity [15]: 67%
- Activity [16]: 10%
- Activity [17]: 62%
- Activity [18]: 63%
- Activity [19]: 100%

Structure (SMILES): O=C(NO)C(Cc1ccccc1)NCc1cccc2ccccc12 (stereo not drawn)
- Activity [1]: 16%

Structure (SMILES): O=C(/C=C/c1cccc2ccccc12)NC(Cc1ccccc1)C(=O)NO (stereo not drawn)
- Activity [1]: 15%
